Measured values published in ChEMBL document CHEMBL1201862, “PubChem BioAssay data set” (2004).
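Exposure lasted 48 hours, with cells grown in 96-well plates and compounds tested at five concentrations. At the GI50, growth is halved.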 The source made the active and inactive calls. No stated cut-off is given here; in the data, active = GI50 up to about 1.1 µM and inactive = higher.

Experiments:
Experiment in all cases: inhibition of tumour cell growth, NCI panel, 48 h
OVCAR-5 = system: OVCAR-5
KM12 = system: KM12
NCI-H522 = system: NCI-H522
A498 = system: A498
MDA-MB-231 = system: MDA-MB-231
SW-620 = system: SW-620
IGROV-1 = system: IGROV-1
ACHN = system: ACHN
RXF 393 = system: RXF 393
UO-31 = system: UO-31
A549 = system: A549
HOP-92 = system: HOP-92
SF-268 = system: SF-268
MDA-MB-435 = system: MDA-MB-435
SK-MEL-2 = system: SK-MEL-2
Hs-578T = system: Hs-578T
SF-295 = system: SF-295
COLO 205 = system: COLO 205
NCI/ADR-RES = system: NCI/ADR-RES

SMILES | GI50 (OVCAR-5) | GI50 (KM12) | GI50 (NCI-H522) | GI50 (A498) | GI50 (MDA-MB-231) | GI50 (SW-620) | GI50 (IGROV-1) | GI50 (ACHN) | GI50 (RXF 393) | GI50 (UO-31) | GI50 (A549) | GI50 (HOP-92) | GI50 (SF-268) | GI50 (MDA-MB-435) | GI50 (SK-MEL-2) | GI50 (Hs-578T) | GI50 (SF-295) | GI50 (COLO 205) | GI50 (NCI/ADR-RES)
CCOC(=O)NC(NCC(O)c1ccccc1)(C(F)(F)F)C(F)(F)F (stereo not drawn) | > 100 µM (inactive) | > 100 µM (inactive) | > 100 µM (inactive) | > 100 µM (inactive) | > 100 µM (inactive) | > 100 µM (inactive) | > 100 µM (inactive) | > 100 µM (inactive) | 43.4 µM (inactive) | > 100 µM (inactive) | > 100 µM (inactive) | > 100 µM (inactive) | > 100 µM (inactive) | > 100 µM (inactive) | > 100 µM (inactive) | > 100 µM (inactive) |  |  | 
CCOC(=O)c1csc(NC(=O)CCN2CCOCC2)n1 | > 100 µM (inactive) |  |  | > 100 µM (inactive) | > 100 µM (inactive) | 49.1 µM (inactive) | 41 µM (inactive) | 44.5 µM (inactive) | 75.5 µM (inactive) | 78.5 µM (inactive) | > 100 µM (inactive) | 69.3 µM (inactive) |  | > 100 µM (inactive) | > 100 µM (inactive) |  | > 100 µM (inactive) | 52.7 µM (inactive) | 48.5 µM (inactive)
NC(=O)c1cnc2sc3ccccc3n2c1=O | > 100 µM (inactive) | > 100 µM (inactive) | 74 µM (inactive) |  | > 100 µM (inactive) | > 100 µM (inactive) | > 100 µM (inactive) | > 100 µM (inactive) | > 100 µM (inactive) | 77.1 µM (inactive) | 67.9 µM (inactive) | 91.4 µM (inactive) | > 100 µM (inactive) |  | > 100 µM (inactive) | 26.4 µM (inactive) | > 100 µM (inactive) | > 100 µM (inactive) | > 100 µM (inactive)
CCc1ccccc1NC(=O)/C=C/c1ccccc1 | > 100 µM (inactive) | > 100 µM (inactive) | > 100 µM (inactive) | > 100 µM (inactive) | > 100 µM (inactive) | > 100 µM (inactive) |  | > 100 µM (inactive) |  |  | > 100 µM (inactive) |  | > 100 µM (inactive) | > 100 µM (inactive) | > 100 µM (inactive) | 70.6 µM (inactive) | > 100 µM (inactive) | > 100 µM (inactive) | 
COC(=O)/C=C/c1cc2c(cc1-c1c(C(=O)O)cc(OC)c(OC)c1OC)OCO2 |  | > 10 µM (inactive) | > 10 µM (inactive) |  | > 10 µM (inactive) | > 10 µM (inactive) | > 10 µM (inactive) | > 10 µM (inactive) |  |  | > 10 µM (inactive) | > 10 µM (inactive) | > 10 µM (inactive) | > 10 µM (inactive) |  | > 10 µM (inactive) | > 10 µM (inactive) | > 10 µM (inactive) | > 10 µM (inactive)
CN1CN(c2ccccc2)C2(CCN(CCC3COc4ccccc4O3)CC2)C1=O (stereo not drawn) | 18.6 µM (inactive) | 24.7 µM (inactive) | 13.8 µM (inactive) |  | 31.9 µM (inactive) | 22 µM (inactive) | 17.6 µM (inactive) | 18.1 µM (inactive) | 31.1 µM (inactive) | 13.5 µM (inactive) | 33.1 µM (inactive) |  | 33.8 µM (inactive) | 24.2 µM (inactive) |  |  | 21.4 µM (inactive) | 5.6 µM (inactive) | 19.7 µM (inactive)
COc1ccc2c(c1)OCC1=C2Oc2ccccc2C1 | 30.1 µM (inactive) | 55.8 µM (inactive) | 22 µM (inactive) | > 100 µM (inactive) | 23.5 µM (inactive) | 30.2 µM (inactive) | 7.19 µM (inactive) | 37.4 µM (inactive) |  | 50.4 µM (inactive) | 48.5 µM (inactive) |  | 81.3 µM (inactive) | 26.5 µM (inactive) | 26.5 µM (inactive) |  | 41.5 µM (inactive) | 22.5 µM (inactive) | 44.4 µM (inactive)
CC1(C)OP(=O)(c2ccccc2)C=C1Br (stereo not drawn) | > 100 µM (inactive) | > 100 µM (inactive) | > 100 µM (inactive) | > 100 µM (inactive) |  | > 100 µM (inactive) | > 100 µM (inactive) | > 100 µM (inactive) |  |  | > 100 µM (inactive) | > 100 µM (inactive) | > 100 µM (inactive) | > 100 µM (inactive) | > 100 µM (inactive) | > 100 µM (inactive) | > 100 µM (inactive) | > 100 µM (inactive) | > 100 µM (inactive)
CCOC(=O)c1c(SCc2cc(=O)[nH]c(=O)[nH]2)n(-c2ccccc2)c(=S)n(-c2ccccc2)c1=O | > 100 µM (inactive) | > 100 µM (inactive) |  | > 100 µM (inactive) | > 100 µM (inactive) | > 100 µM (inactive) | > 100 µM (inactive) | > 100 µM (inactive) | > 100 µM (inactive) | > 100 µM (inactive) | > 100 µM (inactive) |  | > 100 µM (inactive) | > 100 µM (inactive) | > 100 µM (inactive) |  |  | > 100 µM (inactive) | > 100 µM (inactive)
C[Si](C)(C)CNC(=O)OCc1ccccc1 | > 100 µM (inactive) | > 100 µM (inactive) | 83.2 µM (inactive) | > 100 µM (inactive) | > 100 µM (inactive) | > 100 µM (inactive) | > 100 µM (inactive) | > 100 µM (inactive) |  | > 100 µM (inactive) | > 100 µM (inactive) | 22.1 µM (inactive) | > 100 µM (inactive) | > 100 µM (inactive) | > 100 µM (inactive) |  | > 100 µM (inactive) | > 100 µM (inactive) | 75 µM (inactive)
CCOC(=O)CC/C(C)=N\n1c(Cc2ccc(Cl)cc2)n[nH]c1=O | 14.3 µM (inactive) | > 100 µM (inactive) | > 100 µM (inactive) |  | > 100 µM (inactive) | > 100 µM (inactive) | > 100 µM (inactive) | > 100 µM (inactive) | > 100 µM (inactive) | > 100 µM (inactive) | > 100 µM (inactive) |  | > 100 µM (inactive) | > 100 µM (inactive) | > 100 µM (inactive) | > 100 µM (inactive) | > 100 µM (inactive) |  | > 100 µM (inactive)
CC[C@@]1(O)C(=O)OCc2c1cc1n(c2=O)Cc2c-1nc1ccccc1c2/C=N\NC(=O)C(N)CCSC (stereo partly drawn) | 0.774 µM (active) | 0.254 µM (active) | < 0.032 µM (active) | 0.0628 µM (active) | 1.24 µM (inactive) | 0.0883 µM (active) | 0.239 µM (active) | < 0.01 µM (active) | < 0.0146 µM (active) | < 0.0104 µM (active) | 0.0183 µM (active) | 0.0863 µM (active) | < 0.01 µM (active) | 0.108 µM (active) | 0.713 µM (active) |  | < 0.01 µM (active) | 1.24 µM (inactive) | 0.0395 µM (active)
O=C1N/C(=N\C2CCCCC2)C2(CCN(CCCC3(c4ccc(F)cc4)OCCO3)CC2)N1c1ccccc1 | 16.7 µM (inactive) | 18 µM (inactive) | 14.9 µM (inactive) |  |  | 21.2 µM (inactive) |  | 14.8 µM (inactive) | 17.3 µM (inactive) | 12.6 µM (inactive) | 21.4 µM (inactive) |  | 21.5 µM (inactive) | 19.1 µM (inactive) | 16 µM (inactive) | 14.4 µM (inactive) | 19.9 µM (inactive) | 18.5 µM (inactive) | 24.3 µM (inactive)
N#C/C(N)=C(C#N)/N=C/N | > 100 µM (inactive) | > 100 µM (inactive) |  |  | > 100 µM (inactive) | > 100 µM (inactive) | > 100 µM (inactive) | > 100 µM (inactive) |  | 58.6 µM (inactive) | > 100 µM (inactive) | > 100 µM (inactive) | > 100 µM (inactive) | > 100 µM (inactive) | > 100 µM (inactive) | > 100 µM (inactive) | > 100 µM (inactive) | > 100 µM (inactive) | > 100 µM (inactive)
C/C=C/C(O)P1(=O)N(Cc2ccccc2)[C@@H]2CCCC[C@H]2N1Cc1ccccc1 (stereo partly drawn) | > 25 µM (inactive) | > 25 µM (inactive) | > 25 µM (inactive) |  | > 25 µM (inactive) | > 25 µM (inactive) | > 25 µM (inactive) | > 25 µM (inactive) | > 25 µM (inactive) | > 25 µM (inactive) | > 25 µM (inactive) |  | > 25 µM (inactive) | > 25 µM (inactive) | > 25 µM (inactive) | > 25 µM (inactive) | > 25 µM (inactive) | > 25 µM (inactive) | > 25 µM (inactive)
CC(=O)O[C@H]1CCn2c3c(c(C)c21)C(=O)C(N1CC1)=C(C)C3=O | > 10 µM (inactive) | > 10 µM (inactive) | > 10 µM (inactive) |  | > 10 µM (inactive) | > 10 µM (inactive) | > 10 µM (inactive) | > 10 µM (inactive) |  |  | 3.19 µM (inactive) |  | > 10 µM (inactive) | > 10 µM (inactive) | > 10 µM (inactive) | > 10 µM (inactive) | 5.11 µM (inactive) | 6.12 µM (inactive) | > 10 µM (inactive)
C/C(=N\N=C(/S)N1CC2CCC(CC2)C1)c1ccncn1 | 0.213 µM (active) | < 0.01 µM (active) |  | 0.291 µM (active) |  | < 0.01 µM (active) | < 0.01 µM (active) | < 0.01 µM (active) | 0.794 µM (active) | < 0.01 µM (active) | < 0.01 µM (active) |  | 0.133 µM (active) | 0.0703 µM (active) | 1.19 µM (inactive) | 0.914 µM (active) | < 0.0179 µM (active) | < 0.01 µM (active) | < 0.01 µM (active)
